Data: patent US11905253B2, “Compounds and pharmaceutical compositions for reducing CD95-mediated cell motility” (INSTITUT NATIONAL DE LA SANTE ET DE LA RECHERCHE MEDICALE …, priority 2018, dated 2024)

Tests used:
[1] = molecular target: T1, CD95/FADD interaction (DD-FADD/DD-CD95) (Homo sapiens, UniProt P25445+Q13158); assay: Renilla luciferase protein-fragment complementation assay (PCA), DD-FADD-F1 / DD-CD95-F2; assay type: cell-based; settings: luminescence
T1 construct: DD corresponds to amino acids 210 to 303 of CD95; expressed in transfected cells; host or cells: HEK293T
T1 sequence (P25445 226-319 limits assumed): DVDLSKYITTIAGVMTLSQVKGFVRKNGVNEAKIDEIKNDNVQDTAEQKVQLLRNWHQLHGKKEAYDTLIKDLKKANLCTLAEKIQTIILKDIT
T1 sequence (Q13158 97-181 limits assumed): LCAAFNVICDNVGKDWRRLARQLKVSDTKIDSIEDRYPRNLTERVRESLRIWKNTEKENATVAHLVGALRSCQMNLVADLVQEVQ
Protocol: (§1) A. SH3—PLCγ1-F1 or DD-FADD-F1 (inset) was co-transfected into HEK293T cells along with whole CID-CD95-F2 or DD-CD95-F2 (inset). After 24 h, cells were exposed for 4 h to different compounds according to the invention at different concentrations and luminescence was assessed. The tested compounds were the compounds number 2, 3, 4, 5, 6, 7, 10, 11, 13 and 14.
(§2) F1 corresponds to the N-terminal domain of Renilla luciferase enzyme split into two fragments (F1 and F2, F2 being the C-terminal domain—see Stefan, E. et al. Proc Natl Acad Sci USA 104, 16916-21 (2007)). These F1 and F2 domains were co-expressed in HEK cells, whereupon the interaction between CD95-CID and PLCγ1, or CD95-DD and DD-FADD, allowed protein refolding and subsequent recovery of Renilla luciferase activity.
(§3) CID corresponds to amino acids 175 to 210 of CD95; DD corresponds to amino acids 210 to 303 of CD95.
(§4) Renilla luciferase-based protein-fragment complementation assay (PCA): HEK293T cells were electroporated with 10 μg DNA using a BTM-830 electroporation generator (BTX Instrument Division, Harvard Apparatus). Transfected cells were cultured for 24 h prior to PCA analyses as previously described (Poissonnier, A. et al., Immunity. 2016, 45, 209-223). Briefly, transfected cells (10^6) were washed and resuspended in 100 μL PBS and placed in OptiPlate-96 plates (Perkin-Elmer, Waltham, Mass., USA). Coelenterazine-h (5 μM, Sigma-Aldrich) was added to each well and Renilla luciferase activity was monitored for the first 10 seconds using Infinite200Pro (Tecan, Männedorf, Switzerland).

[2] = molecular target: T2, CD95/PLCγ1 interaction (SH3-PLCg1/CID-CD95) (Homo sapiens, UniProt P19174); assay: Renilla luciferase protein-fragment complementation assay (PCA), SH3-PLCγ1-F1 / CID-CD95-F2; assay type: cell-based; settings: luminescence; for IC50: HEK293T cells, exposed 4 h
T2 construct: SH3—PLCγ1-F1 or DD-FADD-F1 (inset) was co-transfected into HEK293T cells; expressed in transfected cells; host or cells: HEK293T
T2 sequence (P19174 791-851): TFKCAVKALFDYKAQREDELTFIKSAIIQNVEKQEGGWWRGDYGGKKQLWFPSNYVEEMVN
Protocol: as §1, §2, §3, §4

[3] = system: CD95-mediated Ca2+ response in Th17 cells; assay: CD95-mediated Ca2+ response in Th17 cells (FIG. 5); assay type: cell-based, human; settings: 1 μM, 1 h pre-incubation, cl-CD95L 100 ng/mL
Protocol: All cells were purchased from ATCC (Molsheim Cedex, France). The T cell lines H9 and CEM were cultured in RPMI supplemented with 8% heat-inactivated FCS (v/v) and 2 mM L-glutamine at 37° C./5% CO2. HEK293T cells were cultured at 37° C./5% CO2 in DMEM supplemented with 8% heat-inactivated FCS and 2 mM L-glutamine. PBMCs were isolated from buffy-coat by density gradient centrifugation on lymphocyte separation medium (Eurobio, Les Ulis, France). Th17 cells (CD4+CCR6+CXCR3−) were sorted from PBMCs using a Th17 Enrichment kit (StemCell Technologies, Grenoble, France). Human umbilical vein endothelial cells (HUVEC) were grown in Endothelial Growth Medium (EGM) supplemented with 2% FCS and EGM-2 Bullet Kit (Lonza, Levallois-Perret, France).
Th17 cells were pre-incubated for 1 h with TAT-control, minCID, or compound 13 (each at 1 μM), and then stimulated with cl-CD95L (100 ng/mL). [Ca^2+]CYT was assessed in Fluo2 LR-AM (2 μM)-loaded cells.

Compound	IC50 ([1]; HEK293T cells, exposed 4 h) [µM]	IC50 [2] [µM]	further results
CCCCCCCCCCCCCCCCCC(=O)N(CCN)C(CCCNC(=N)N)C(=O)NCCN(C(=O)CCCCCN)C(Cc1cnc[nH]1)C(=O)NCCN(C(=O)CCCCNC(=N)N)C(CCCCN)C(N)=O (centres unmarked) [Compound 1]	33.2	34.7	–
N=C(N)NCCCCC(=O)N(CCNC(=O)C(Cc1cnc[nH]1)N(CCNC(=O)C(CCCNC(=N)N)N(CCN)C(=O)CCS)C(=O)CCCCCC(N)=O)C(CCCCN)C(N)=O (centres unmarked) [Compound 2]	311	315	–
N=C(N)NCCCCC(=O)N(CCNC(=O)C(Cc1cnc[nH]1)N(CCNC(=O)C(CCCNC(=N)N)N(CCN)C(=O)CCS)C(=O)CCc1c[nH]c2ccccc12)C(CCCCN)C(N)=O (centres unmarked) [Compound 3]	246	185	–
N=C(N)NCCCCC(=O)N(CCNC(=O)C(Cc1cnc[nH]1)N(CCNC(=O)C(CCCNC(=N)N)N(CCN)C(=O)CCS)C(=O)CCC1CNc2ccccc21)C(CCCCN)C(N)=O (centres unmarked) [Compound 4]	245	203	–
N=C(N)NCCCCC(=O)N(CCNC(=O)C(Cc1cnc[nH]1)N(CCNC(=O)C(CCCNC(=N)N)N(CCN)C(=O)CCS)C(=O)CCc1ccc(O)cc1)C(CCCCN)C(N)=O (centres unmarked) [Compound 5]	213	196	–
CC(O)C(N)C(=O)NCCN(C(=O)CCS)C(CCCNC(=N)N)C(=O)NCCN(C(=O)CCc1c[nH]c2ccccc12)C(Cc1c[nH]cn1)C(=O)NCCN(C(=O)CCCCNC(=N)N)C(CCCCN)C(N)=O (centres unmarked) [Compound 6]	277	356	–
CC(O)C(N)C(=O)NCCN(C(=O)CCS)C(Cc1c[nH]c2ccccc12)C(=O)NCCN(C(=O)CCCCCN)C(Cc1cnc[nH]1)C(=O)NCCN(C(=O)CCCCNC(=N)N)C(CCCCN)C(N)=O (centres unmarked) [Compound 7]	325	78.6	–
N=C(N)NCCCCC(=O)N(CCNC(=O)C(N)CS)C(CCCCN)C(=O)NCCN(C(=O)CCc1c[nH]cn1)C(CCCNC(=N)N)C(=O)NCCNC(=O)CCCCCN (centres unmarked) [Compound 10]	448	400	–
CC(O)CC(=O)NC(CS)C(=O)NCCN(C(=O)CCCCNC(=N)N)C(CCCCN)C(=O)NCCN(C(=O)CCc1c[nH]cn1)C(CCCNC(=N)N)C(=O)NCCNC(=O)CCCCCN (centres unmarked) [Compound 11]	629	309	–
CC(O)CC(=O)N(CCN)C(CS)C(=O)NCCN(C(=O)CCCCNC(=N)N)C(CCCCN)C(=O)NCCN(C(=O)CCc1c[nH]cn1)C(CCCNC(=N)N)C(=O)NCCNC(=O)CCCCCN (centres unmarked) [Compound 12]	319	229	–
CC(O)C(N)C(=O)NCCN(C(=O)CCS)C(CCCNC(=N)N)C(=O)NCCN(C(=O)CCCCCN)C(Cc1cnc[nH]1)C(=O)NCCN(C(=O)CCCCNC(=N)N)C(CCCCN)C(N)=O (centres unmarked) [Compound 13]	–	77.2	IC50 DD-FADD/DD-CD95 ([1]; HEK293T cells, exposed 4 h): ns
N=C(N)NCCCCC(=O)N(CCNC(=O)C(Cc1cnc[nH]1)N(CCNC(=O)C(CCCNC(=N)N)N(CCN)C(=O)CCS)C(=O)CCCCCN)C(CCCCN)C(N)=O (centres unmarked) [Compound 14]	3800	75.2	–
CCC(=O)N(CCN)C(CCCNC(=N)N)C(=O)NCCN(C(=O)CCCCCN)C(Cc1cnc[nH]1)C(=O)NCCN(C(=O)CCCCNC(=N)N)C(CCCCN)C(N)=O (centres unmarked) [Compound 15]	164	60.9	–
N=C(N)NCCCCC(=O)N(CCNC(=O)C(Cc1cnc[nH]1)N(CCNC(=O)C(CCCNC(=N)N)N(CCN)C(=O)CCO)C(=O)CCCCCN)C(CCCCN)C(N)=O (centres unmarked) [Compound 16]	3930	79	–
N=C(N)NCCCCC(=O)N(CCNC(=O)C(Cc1cnc[nH]1)N(CCNC(=O)C(CCCNC(=N)N)N(CCN)C(=O)CCC(N)=O)C(=O)CCCCCN)C(CCCCN)C(N)=O (centres unmarked) [Compound 17]	720	343	–
N=C(N)NCCCC(C(=O)NCCN(C(=O)CCCCCN)C(Cc1cnc[nH]1)C(=O)NCCN(C(=O)CCc1ccc(O)cc1)C(CCCCN)C(N)=O)N(CCN)C(=O)CCS (centres unmarked) [Compound 26]	–	655	–
N=C(N)NCCCC(C(=O)NCCN(C(=O)CCCCCN)C(Cc1cnc[nH]1)C(=O)NCCN(C(=O)CCc1ccc(N)cc1)C(CCCCN)C(N)=O)N(CCN)C(=O)CCS (centres unmarked) [Compound 27]	–	856	–
N=C(N)NCCCC(C(=O)NCCN(C(=O)CCCCCN)C(Cc1cnc[nH]1)C(=O)NCCN(C(=O)CCc1c[nH]c2ccccc12)C(CCCCN)C(N)=O)N(CCN)C(=O)CCS (centres unmarked) [Compound 28]	2650	343	–
N=C(N)NCCCCC(=O)N(CCNC(=O)C(Cc1cnc[nH]1)N(CCNC(=O)C(Cc1cccnc1)N(CCN)C(=O)CCS)C(=O)CCCCCN)C(CCCCN)C(N)=O (centres unmarked) [Compound 30]	4250	907	–
N=C(N)NCCCCC(=O)N(CCNC(=O)C(Cc1cnc[nH]1)N(CCNC(=O)C(Cc1c[nH]c2ccccc12)N(CCN)C(=O)CCS)C(=O)CCCCCN)C(CCCCN)C(N)=O (centres unmarked) [Compound 31]	173	85.5	–
minCID: minimum domain of CID required for interaction with PLCγ1; amino acids 182-188 (TCRKHRK) (SEQ ID NO: 1) of human CD95; positive control (minCID corresponding to amino acids 182-188 of human CD95; listed as Homo sapiens) [reference compound]	–	–	CD95-mediated Ca2+ response in Th17 cells [3]: inhibited; effect on the CD95/FADD interaction ([1]; HEK cells, 4 h, FIGS. 1A, 1B, 1C (inset)): without affecting the CD95/FADD interaction; disruption of the CD95/PLCγ1 interaction ([2]; HEK cells, 4 h, FIGS. 1A, 1B, 1C): disrupt the CD95/PLCγ1 interaction
